In patent publication US9884067B2, “Androgen receptor down-regulating agents and uses thereof” (UNIVERSITY OF MARYLAND EASTERN SHORE, priority 2013, dated 2018):
Where two headings read alike, the source gives them in different places.

Key:
LNCaP cells = experiment: MTT colorimetric anti-proliferative assay; type: cell-based, human; conditions: for GI50: LNCaP, MTT, 7 days; for fold loss/reduction in anti-proliferative activity: relative to lead compound 5 (or parent 32)
Method: The cells were treated for 7 days with renewal of test compound and media on day 4. On the 7th day, medium was renewed and MTT (3-(4,5-dimethylthiazol-2-yl)-2,5-diphenyl-2H-tetrazolium bromide) (Sigma, St Louis, Mo., USA) solution (0.5 mg MTT per ml of media) was added to the medium such that the ratio of MTT: medium was 1:10. The cells were incubated with MTT for 2 hours. The medium was then aspirated and DMSO was added to solubilize the violet MTT-formazan product.

AR = molecular target: T1, AR (Homo sapiens, UniProt P10275, T878A); experiment: AR down-regulation, western blot analysis in LNCaP cells; type: cell-based; conditions: 24 h, western blot
T1 construct: host or cells: LNCaP
T1 sequence (P10275 1-920 T878A): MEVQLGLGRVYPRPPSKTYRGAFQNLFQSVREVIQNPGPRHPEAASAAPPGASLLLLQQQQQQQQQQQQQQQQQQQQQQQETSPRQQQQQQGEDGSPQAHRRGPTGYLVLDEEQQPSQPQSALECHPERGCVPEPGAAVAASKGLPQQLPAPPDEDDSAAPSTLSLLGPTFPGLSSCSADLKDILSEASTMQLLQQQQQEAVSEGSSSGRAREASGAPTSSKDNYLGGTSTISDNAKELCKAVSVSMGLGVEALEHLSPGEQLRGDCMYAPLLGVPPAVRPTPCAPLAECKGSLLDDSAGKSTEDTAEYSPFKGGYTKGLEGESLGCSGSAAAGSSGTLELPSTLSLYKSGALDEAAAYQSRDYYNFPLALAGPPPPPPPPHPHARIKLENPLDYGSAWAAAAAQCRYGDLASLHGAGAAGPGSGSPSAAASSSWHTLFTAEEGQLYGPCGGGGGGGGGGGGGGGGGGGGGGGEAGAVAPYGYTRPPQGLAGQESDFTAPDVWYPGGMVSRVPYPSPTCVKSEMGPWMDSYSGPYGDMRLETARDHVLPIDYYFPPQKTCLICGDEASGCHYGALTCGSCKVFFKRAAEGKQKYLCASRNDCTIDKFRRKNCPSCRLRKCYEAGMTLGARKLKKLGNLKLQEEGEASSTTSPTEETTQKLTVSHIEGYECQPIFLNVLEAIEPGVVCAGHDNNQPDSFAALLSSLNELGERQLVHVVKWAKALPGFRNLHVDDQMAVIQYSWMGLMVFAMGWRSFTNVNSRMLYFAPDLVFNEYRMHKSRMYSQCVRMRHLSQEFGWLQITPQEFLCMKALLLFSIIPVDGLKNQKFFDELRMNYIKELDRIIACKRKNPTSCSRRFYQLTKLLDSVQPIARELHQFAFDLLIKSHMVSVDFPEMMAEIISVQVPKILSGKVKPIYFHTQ
Method: For the Western blot analyses, LNCaP or CWR22v1 prostate cancer cells were cultured. The cells were then treated with the indicated compounds and whole cell lysates were prepared using RIPA lysis buffer (Sigma Aldrich) and protease and phosphatase inhibitors (Sigma Aldrich). All of the antibodies were ordered from cell signaling technology. Protein content was determined using the Bradford Assay (Bio-Rad, Hercules, Calif., USA). Protein was subjected to SDS-PAGE and transferred onto nitrocellulosemembrane. Membranes were then incubated with secondary antibody (cell signaling technology) at room temperature for 1 hour. Bands were visualized by chemiluminescence (Millipore). Protein expression was normalized to β-actin and densitometry was carried out using Image J or ImageQuant 5.0 (Molecular Dynamics, Sunnyvale, Calif., USA). CWR22Rv1 cells were used for endogenous levels of splice variant AR-3. Protein levels were analyzed with respective antibodies; full length AR and β-actin antibodies were purchased from cell signaling, antibody specific for splice variant AR-3 was obtained from Dr. Yun Qiu, University of Maryland, School of Medicine, Baltimore.

[1] = Table 4, read-out: GI50 of C-3 modified compounds
[2] = Homo sapiens, 168 h, Table 2, read-out: GI50 of C-17 modified compounds
[3] = Table 2, read-out: GI50 of C-17 modified compounds
[4] = Homo sapiens, 168 h, Table 4, read-out: GI50 of C-3 modified compounds

Row | Compound | GI50 (LNCaP cells; [1]) [µM] | AR down-regulation (ARD) activity, in words (AR) | melting point [°C] | other results
1 | 3β-(3-(Oxycarbonyl)phenylacetic acid)-17-(1H-benzimidazol-1-yl)-androsta-5,16-diene [Compound 44] | 7.78 | – | – | –
2 | CON=C1C=C2CC[C@@H]3[C@H](CC[C@]4(C)C(n5cnc6ccccc65)=CC[C@@H]34)[C@@]2(C)CC1 (mixture of isomers) [Compound 38, 3-((EZ)-O-Methyloxime)-17-(1H-Benzimidazol-1-yl)-androsta-4,16-diene] | 3.38 | – | – | –
3 | C[C@]12CCC(=NOCc3ccccc3)C=C1CC[C@@H]1[C@@H]2CC[C@]2(C)C(n3cnc4ccccc43)=CC[C@@H]12 (mixture of isomers) [Compound 39, 3-((EZ)-(O-Phenylmethyl)oxime)-17-(1H-Benzimidazol-1-yl)-androsta-4,16-diene] | 5.57 | – | – | –
4 | Cc1cc2ncn(C3=CC[C@H]4[C@@H]5CC=C6C[C@@H](O)CC[C@]6(C)[C@H]5CC[C@]34C)c2cc1C [Compound 17, 3β-Hydroxy-17-(5,6-dimethyl-1H-benzimidazol-1-yl)-androsta-5,16-diene] | – | substantial loss | 194 to 196 | GI50 (LNCaP cells; [2]): 42.7 µM
5 | C[C@]12CC[C@H](O)CC1=CC[C@@H]1[C@@H]2CC[C@]2(C)C(n3cnc4cc(C#N)ccc43)=CC[C@@H]12 [Compound 18, 3β-Hydroxy-17-(5(6)-nitrile-1H-benzimidazol-1-yl)-androsta-5,16-diene] | – | diminished AR down-regulation (ARD) activity | – | GI50 (LNCaP cells; [3]): 2.81 µM
6 | COc1ccc2ncn(C3=CC[C@H]4[C@@H]5CC=C6C[C@@H](O)CC[C@]6(C)[C@H]5CC[C@]34C)c2c1 [Compound 19, 3β-Hydroxy-17-(6-methoxy-1H-benzimidazol-1-yl)-androsta-5,16-diene] | – | no modulation of ARDA | 169 to 179 | GI50 (LNCaP cells; [3]): 4.26 µM
7 | C[C@]12CC[C@H](O)CC1=CC[C@@H]1[C@@H]2CC[C@]2(C)C(n3cnc4cc5ccccc5cc43)=CC[C@@H]12 [Compound 20, 3β-Hydroxy-17-(1H-benzo[f]benzimidazol-1-yl)-androsta-5,16-diene] | – | significant loss of ARDA | 150 to 152 | GI50 (LNCaP cells; [2]): 19.1 µM
8 | C[C@]12CC[C@H](O)CC1=CC[C@@H]1[C@@H]2CC[C@]2(C)C(n3cnc4c(Cl)ncnc43)=CC[C@@H]12 [Compound 21, 3β-Hydroxy-17-(6-Chloro-9H-purin-9-yl)-androsta-5,16-diene] | – | – | 272 to 274 | GI50 (LNCaP cells; [3]): 13.5 µM; fold loss/reduction in anti-proliferative activity (LNCaP cells): 4 fold
9 | C[C@]12CC[C@H](O)CC1=CC[C@@H]1[C@@H]2CC[C@]2(C)C(n3c(Cl)nc4ccccc43)=CC[C@@H]12 [Compound 22, 3β-Hydroxy-17-(2-chloro-1H-benzimidazol-1-yl)-androsta-5,16-diene] | – | – | 83 to 86 | GI50 (LNCaP cells; [2]): 10.1 µM; fold loss/reduction in anti-proliferative activity (LNCaP cells): 3 fold
10 | CC(C)CCNCC1=C(n2cnc3ccccc32)[C@@]2(C)CC[C@H]3[C@@H](CC=C4C[C@@H](O)CC[C@@]43C)[C@@H]2C1 [Compound 25, 3β-Hydroxy-17-(1H-benzimidazol-1-yl)-16-((isopentylamino)methyl)-androsta-5,16-diene] | – | significant loss of ARD | 111 to 113 | –
11 | C[C@]12CC[C@H](O)CC1=CC[C@@H]1[C@@H]2CC[C@]2(C)C(n3cnc4ccccc43)=C(CNc3ccccc3)C[C@@H]12 [Compound 28, 3β-Hydroxy-17-(1H-benzimidazol-1-yl)-16-((phenylamino)methyl)-androsta-5,16-diene] | – | significant loss of ARD | 130 to 132 | GI50 (LNCaP cells; Homo sapiens, 168 h, LNCaP cells, Table 3, read-out: GI50 of C-16 modified compounds): 22.1 µM
12 | C[C@]12CCC(=O)C=C1CC[C@@H]1[C@@H]2CC[C@]2(C)C(n3cnc4ccccc43)=CC[C@@H]12 [Compound 32, 17-(1H-Benzimidazol-1-yl)-androsta-4,16-dien-3-one] | – | – | – | GI50 (LNCaP cells; [4]): 2.64 µM
13 | C[C@]12CCC(=O)CC1=CC[C@@H]1[C@@H]2CC[C@]2(C)C(n3cnc4ccccc43)=CC[C@@H]12 [Compound 33, 17-(1H-Benzimidazol-1-yl)-androsta-5,16-dien-3-one] | – | – | 170 to 172 | GI50 (LNCaP cells; [4]): 16 µM; fold loss/reduction in anti-proliferative activity (LNCaP cells): ~5 fold
14 | C[C@]12CC[C@H](OS(C)(=O)=O)CC1=CC[C@@H]1[C@@H]2CC[C@]2(C)C(n3cnc4ccccc43)=CC[C@@H]12 [Compound 34, 3β-Mesyloxy-17-(1H-benzimidazol-1-yl)-androsta-5,16-dien] | – | – | – | GI50 (LNCaP cells; [4]): 42.1 µM
15 | Cc1ccc(S(=O)(=O)O[C@H]2CC[C@@]3(C)C(=CC[C@@H]4[C@@H]3CC[C@]3(C)C(n5cnc6ccccc65)=CC[C@@H]43)C2)cc1 [Compound 35, 3β-Tosyloxy-17-(1H-benzimidazol-1-yl)-androsta-5,16-dien] | 47.2 | – | 139 to 141 | –
16 | CC1(O)C=C2CC[C@@H]3[C@H](CC[C@]4(C)C(n5cnc6ccccc65)=CC[C@@H]34)[C@@]2(C)CC1 (stereo partly drawn) [Compound 40, 3-Methyl-3-hydroxy-17-(1H-benzimidazol-1-yl)-androsta-4,16-diene] | – | – | 95 to 97 | GI50 (LNCaP cells; [4]): 13.3 µM; fold loss/reduction in anti-proliferative activity (LNCaP cells): ~5 fold
17 | C[C@]12CC[C@H](OC(=O)C3CC=CCC3C(=O)O)CC1=CC[C@@H]1[C@@H]2CC[C@]2(C)C(n3cnc4ccccc43)=CC[C@@H]12 (stereo partly drawn) [Compound 45, 3β-(6-(Cyclohex-3-enecaboxylic acid)carboxylate)-17-(1H-benzimidazol-1-yl)-androsta-5,16-diene] | 8.22 | – | – | –
18 | C[C@]12CC[C@H](OC(=O)COCC(=O)O)CC1=CC[C@@H]1[C@@H]2CC[C@]2(C)C(n3cnc4ccccc43)=CC[C@@H]12 [Compound 46, 3β-(Oxycarbonyl-(methoxy)acetic acid)-17-(1H-benzimidazol-1-yl)-androsta-5,16-diene] | 9.13 | – | – | –
19 | C[C@]12CC[C@H](OC(=O)n3cncn3)CC1=CC[C@@H]1[C@@H]2CC[C@]2(C)C(n3cnc4ccccc43)=CC[C@@H]12 [Compound 49, 3β-(1H-1,2,4-Triazole-1-carboxylate)-17-(1H-benzimidazol-1-yl)-androsta-5,16-diene] | 6.67 | – | – | fold decrease in anti-proliferative activity (LNCaP cells; relative to 47): ~8 fold
